From patent US20160214918A1, “COMPOSITION FOR TREATING METABOLIC SYNDROME AND A PREPARATION METHOD THEREOF” (Kaohsiung Medical University, priority 2015, published 2016)

Legend:
fat cells = test: cellular toxicity in fat cells; assay type: cell-based; details: FIG. 6A, drug 30 ug/mL
mature fat cells = test: glucose consumption rate of fat cells in culture medium; assay type: cell-based; details: 24 hours, control group about 20%
Excerpt: Please refer to FIGS. 6A-6C. FIGS. 6A-6C show the results of the activity of the glucose consumption rate of fat cells in the culture medium. As shown in FIGS. 6A-6C, various compounds containing halogens, such as chlorine, bromine and iodine, can increase the glucose consumption rate of fat cells. Many of the deuterium-containing compounds are new ones in this example. […] Symbol ‘Con’ denotes the Control Group, Symbol ‘5’ denotes a 2Br2H compound, Symbol ‘6’ denotes a 2I2H compound, Symbol ‘Met’ denotes a metformin, Symbol ‘AI’ denotes an AMPK inhibitor, Symbol ‘L’ denotes a low-dose usage of 15 ug/mL, and Symbol ‘H’ denotes a high-dose usage of 30 ug/mL
The activity of the glucose consumption rate of fat cells is taken from the following: A testing drug, 2,3-dideutero-1-(2-iodophenyl)-3-(4-methoxyphenyl)propan-1-one with the concentration 30 ug/mL, was cultured with mature fat cells for 24 hours. It was then tested to determine the change of the glucose concentration in the culture medium.
24 hours after the replacement of a culture media, the glucose consumption rate of the control group was about 20%. After insulin was added, the glucose consumption rate of the cells in the control group upgrades to 30%. With the commercial drug, Pioglitazone of 30 ug/mL, the glucose consumption rate of the cells in the corresponding group increased to 40%.

Row | Compound | cellular toxicity (fat cells) | other results
1 | COc1ccc(/C=C/C(=O)c2ccccc2I)cc1 [2I2H, (E)-1-(2-iodophenyl)-3-(4-methoxyphenyl)prop-2-en-1-one] | no visible cellular toxicity | 
2 | insulin: insulin added to fat cells as a positive control |  | glucose consumption rate of the cells (mature fat cells; fat cells, after insulin was added): 30%
3 | CCc1ccc(CCOc2ccc(CC3SC(=O)NC3=O)cc2)nc1 (centres unmarked) [Pioglitazone, reference compound] |  | glucose consumption rate of the cells (mature fat cells; mature fat cells, drug 30 ug/mL): 40%
4 | COc1ccc(C#CC(=O)c2ccccc2I)cc1 [2I3, 1-(2-iodophenyl)-3-(4-methoxyphenyl)prop-2-yn-1-one] | significant cellular toxicity | 
5 | [2H]C(C(=O)c1ccccc1I)C([2H])c1ccc(OC)cc1 (centres unmarked) [2I1D, 2,3-dideutero-1-(2-iodophenyl)-3-(4-methoxyphenyl)propan-1-one] | no visible cellular toxicity | 
